Results: patent publication US20070270462A1, “8-hydroxyquinoline compounds for treating a polyglutamine (polyQ)-expansion disease” (priority 2005, published 2007)

Test system: R6/2 mice
Experiment: Lifespan (survival) of R6/2 mice
Type: in vivo, mouse
Settings: oral CQ 30 mg/kg/day
Method: A colony of transgenic mice strain R6/2 that is heterozygous for htt exon1 (containing 145 CAG repeats) was maintained, with founders originating and available from The Jackson Laboratory (Bar Harbor, Me., USA). Male transgenic R6/2 mice were bred with background strain (B6CBAFI/J) females. Genotyping was done according to Hockly et al, Brain Res Bull 61, 469-479, 2003. CQ in water was orally administered to mice at 30 mg/kg/day starting at 3 weeks of age and continued until the mice were deceased or sacrificed for tissues. Littermate R6/2 mice were gavaged with water vehicle alone. At the end of CQ treatment mice were anesthetized and transcardially perfused with PBS followed by 4% v/v paraformaldehyde. Blood glucose levels were determined after at least 8 hrs of fasting in 11-week old mice (n=6 for wild-type, n=4 for vehicle-treated R6/2, n=6 for CQ-treated R6/2 littermates) using a 2300 STAT Plus glucose analyzer (YSI, Yellowsonte, Ohio, USA). Fasting blood insulin levels in animals fasted for 8 hrs were measured using an Ultra Sensitive Rat Insulin ELISA Kit (Crystal Chem, Inc., Downers Grove, Ill., USA) according to manufacturer's instructions. […]

`Oc1c(I)cc(Cl)c2cccnc12` [CQ, 5-chloro-7-iodo-8-hydroxy-quinoline] was tested, and the average lifespan was 92 days and the “increase in longevity over the littermate control group” value was 20%.
